Usually chromatographic logP stands for lipophilicity estimated from chromatographic retention.

Results on 14 compounds are retold here after patent US20230055705A1, “SUBSTITUTED THIOPHENE CARBOXAMIDES AND DERIVATIVES THEREOF” (Bayer Aktiengesellschaft, priority 2019, published 2023).

Series [1] in a line: LogP by HPLC on reversed phase columns (EEC directive 79/831 Annex V.A8). The series is classed as physicochemical. To be noted: for chromatographic logP: reversed phase HPLC columns. The protocol:
In the above tables, measurement of LogP values was performed according to EEC directive 79/831 Annex V.A8 by HPLC (High Performance Liquid Chromatography) on reversed phase columns with the following methods: • ^[a]
Calibration was done with straight-chain alkan2-ones (with 3 to 16 carbon atoms) with known LogP values (measurement of LogP values using retention times with linear interpolation between successive alkanones). Lambda-max-values were determined using UV-spectra from 200 nm to 400 nm and the peak values of the chromatographic signals.

Series [2] has as its system Colletotrichum lindemuthianum. The experiment in a line: In vivo preventive test on Colletotrichum lindemuthianum (Antrachnose on bean). To be noted: 144 h, inoculation 72 h after spraying, evaluated 6 days after inoculation, read-out: efficacy; for pest or weed control at 31 ppm: 31 ppm of active ingredient; for pest or weed control at 500 ppm: 500 ppm of active ingredient. The protocol:
(§1) The tested active ingredients were prepared by homogenization in a mixture of acetone/Dimethyl sulfoxide/Tween®, and then diluted with water to obtain the desired active material concentration. The young plants of bean were treated by spraying the active ingredient prepared as described above. Control plants were treated only with an aqueous solution of acetone/Dimethyl sulfoxide/Tween®.
After 72 hours, the plants were contaminated by spraying the leaves with an aqueous suspension of Colletotrichum lindemuthianum spores. The contaminated bean plants were incubated for 24 hours at 20° C. and at 100% relative humidity and then for 5 days at 20° C. and at 90% relative humidity. The test was evaluated 6 days after the inoculation. 0% means an efficacy which corresponds to that of the control plants while an efficacy of 100% means that no disease was observed.
Compound CMP1 was tested in an in vivo preventive test on Colletotrichum lindemuthianum (Antrachnose on bean) in the same conditions as described in Example F.

In another series the test system is Uromyces appendiculatus. The experiment in a line: In vivo preventive test on Uromyces appendiculatus (bean rust). To be noted: 240 h, evaluated 10 days after inoculation, read-out: efficacy; for pest or weed control at 125 ppm: 125 ppm of active ingredient; for pest or weed control at 500 ppm: 500 ppm of active ingredient. The protocol:
as §1
After 72 hours, the plants were contaminated by spraying the leaves with an aqueous suspension of Uromyces appendiculatus spores. The contaminated bean plants were incubated for 24 hours at 20° C. and at 100% relative humidity and then for 9 days at 20° C. and at 70-80% relative humidity. The test was evaluated 10 days after the inoculation. 0% means an efficacy which corresponds to that of the control plants while an efficacy of 100% means that no disease was observed.
Compounds CMP5 and CMP6 were tested in an in vivo preventive test on Uromyces appendiculatus (bean rust) in the same conditions as described in Example I.

The next series concerns Peronospora parasitica. The experiment in a line: In vivo preventive test on Peronospora parasitica (Crucifer downy mildew). As to conditions: cabbage, evaluated 5 days after inoculation; for pest or weed control at 31 ppm / pest or weed control at 125 ppm / pest or weed control at 500 ppm: Hyaloperonospora parasitica, in Brassica oleracea, 120 h, read-out: efficacy; for pest or weed control at 31 ppm: 31 ppm of active ingredient; for pest or weed control at 125 ppm: 125 ppm of active ingredient. The protocol:
The tested active ingredients were prepared by homogenization in a mixture of acetone/Dimethyl sulfoxide/Tween®, and then diluted with water to obtain the desired active material concentration. The young plants of cabbage were treated by spraying the active ingredient prepared as described above. Control plants were treated only with an aqueous solution of acetone/Dimethyl sulfoxide/Tween®.
After 72 hours, the plants were contaminated by spraying the leaves with an aqueous suspension of Peronospora parasitica spores. The contaminated cabbage plants were incubated for 5 days at 20° C. and at 100% relative humidity.
The test was evaluated 5 days after the inoculation. 0% means an efficacy which corresponds to that of the control plants while an efficacy of 100% means that no disease was observed.
Compounds CMP2 and CMP3 were tested in an in vivo preventive test on Peronospora parasitica (Crucifer downy mildew) in the same conditions as described in Example G.

Series [3] has as its system salicylate responsive promoter sequence of the PR1 (pathogenesis-related protein I) gene (AT2G14610). As to the kind of experiment: Induction of defense gene expression in Arabidopsis thaliana (PR1 promoter-GFP reporter plants). To be noted: 3rd day after spraying, mock treated leaves set as 1.00; for fold induction at 75 ppm / fold induction at 300 ppm: Arabidopsis thaliana, 72 h, read-out: relative fluorescence value; for fold induction at 75 ppm: 75 ppm of compound. The series is classed as in vivo. The protocol: Arabidopsis thaliana reporter plants containing the coding sequence of a green fluorescent protein (GFP) linked to the salicylate responsive promoter sequence of the PR1 (pathogenesis-related protein I) gene (AT2G14610) were grown for five days and then sprayed with compounds. On the 3rd day after spraying, plant fluorescence was assessed with a MacroFluo instrument from Leica Microsystems (Wetzlar, Germany). Fluorescences were quantified with the Meta-Morph Microscopy Automation & Image Analysis Software (Molecular Devices, Sunnyvale, Calif., United States). Background fluorescence in mock treated leaves was set as 1.00.

Series [4] relates to Xanthomonas campestris pv. campestris. As to the kind of experiment: In vivo preventive test on Xanthomonas campestris pv. campestris (black rot on cabbage). As to conditions: evaluated 8 or 10 days after inoculation, read-out: efficacy; for pest or weed control at 31 ppm: 31 ppm of active ingredient; for pest or weed control at 125 ppm: 125 ppm of active ingredient. The protocol: The tested active ingredients were prepared by homogenization in a mixture of acetone/Dimethyl sulfoxide/Tween®, and then diluted with water to obtain the desired active material concentration.
The young plants of cabbage were treated by spraying the active ingredient prepared as described above. Control plants were treated only with an aqueous solution of acetone/Dimethyl sulfoxide/Tween®.
After 72 hours, the plants were contaminated by spraying the leaves with an aqueous bacteria suspension of Xanthomonas campestris pv. campestris. The contaminated cabbage plants were incubated for 8 or 10 days at 27° C. at 95% relative humidity.
The test was evaluated 8 or 10 days after the inoculation. 0% means an efficacy which corresponds to that of the control plants while an efficacy of 100% means that no disease was observed. […]
Compounds CMP1, CMP2, CMP3 and CMP4 were tested in an in vivo preventive test on Xanthomonas campestris pv. campestris (black rot on cabbage) in the same conditions as described in Example H.

Series [5] deals with Pseudomonas syringae pv. tomato. The experiment in a line: In vivo preventive test on Pseudomonas syringae pv. tomato (bacterial speck on tomato). As to conditions: evaluated 5 or 6 days after inoculation, read-out: efficacy; for pest or weed control at 500 ppm: 500 ppm of active ingredient; for pest or weed control at 31 ppm: 31 ppm of active ingredient. The protocol:
The tested active ingredients were prepared by homogenization in a mixture of acetone/Dimethyl sulfoxide/Tween®, and then diluted with water to obtain the desired active material concentration. The young plants of tomato were treated by spraying the active ingredient prepared as described above. Control plants were treated only with an aqueous solution of acetone/Dimethyl sulfoxide/Tween®.
After 72 hours, the plants were contaminated by spraying the leaves with an aqueous bacteria suspension of Pseudomonas syringae pv. tomato. The contaminated tomato plants were incubated for 4 days in saturated atmosphere at 22° C. day/20° C. night—70% HR and then for 1 or 2 days at 22° C. day/20° C. night at 70-80% relative humidity.
The test was evaluated 5 or 6 days after the inoculation. 0% means an efficacy which corresponds to that of the control plants while an efficacy of 100% means that no disease was observed.
Compounds CMP1 and CMP4 were tested in an in vivo preventive test on Pseudomonas syringae pv. tomato (bacterial speck on tomato) in the same conditions as described in Example J.

Setting [6] is: method [a]: LC-UV, in an acidic range, with 0.1% formic acid in water and acetonitrile as eluent (linear gradient from 10% to 95% acetonitrile).

For `CCNC(=O)[C@H](C)NC(=O)c1sc(Cl)c(Cl)c1Cl` [I.120], the chromatographic logP in series [1] (setting [6]) was 2.75. For the same compound, the pest or weed control at 31 ppm in series [2] lay within 70 to 79%; in the series with Peronospora parasitica, 90 to 100%; in series [4], 80 to 89%. Also, the pest or weed control at 500 ppm (in series [2]; in the series on Uromyces appendiculatus; in the series with Peronospora parasitica (500 ppm of active ingredient)) was 90 to 100% each time. In addition, the pest or weed control at 125 ppm in the series on Uromyces appendiculatus and in the series on Peronospora parasitica was 90 to 100% each time. Besides, the fold induction at 75 ppm in series [3] is above 2. The fold induction at 300 ppm in series [3] (300 ppm) is above 2.

Take `CNC(=O)[C@@H](NC(=O)c1sc(Cl)c(Cl)c1Cl)C(C)C` [I.096]: the chromatographic logP in series [1] (setting [6]) was determined as 2.97. In series [4], the pest or weed control at 125 ppm was in the range of 80 to 89%.

In series [1] (setting [6]), `CNC(=O)[C@H](C)NC(=O)c1sc(Cl)c(Cl)c1Cl` [I.091] had a chromatographic logP of 2.35. Moreover, the pest or weed control at 500 ppm in series [2] was 70 to 79%; in the series with Uromyces appendiculatus, 70 to 79%; with Peronospora parasitica (500 ppm of active ingredient) it was 90 to 100%. The figures for the pest or weed control at 125 ppm in the series with Uromyces appendiculatus and with Peronospora parasitica were 80 to 89% and 90 to 100%, respectively. Also, the pest or weed control at 31 ppm in the series with Peronospora parasitica is 90 to 100%. In series [3] (300 ppm), the fold induction at 300 ppm was above 2.

On to `CCOC(=O)[C@@H](NC(=O)c1sc(Cl)c(Cl)c1Cl)C(C)C` [CMP6, reference compound], for which the pest or weed control at 500 ppm in the series on Uromyces appendiculatus is below 40%.

For the compound `CCSC(=O)[C@@H](NC(=O)c1sc(Cl)c(Cl)c1Cl)C(C)C` [I.094], the pest or weed control at 500 ppm lay within 80 to 89% in series [5], 90 to 100% in the series on Uromyces appendiculatus and 90 to 100% with Peronospora parasitica (500 ppm of active ingredient). Further, the fold induction at 300 ppm in series [3] (300 ppm) is above 2.

On to `CC(C)[C@H](NC(=O)c1sc(Cl)c(Cl)c1Cl)C(=O)O` [CMP5, reference compound], for which the pest or weed control at 8 ppm in the series with Uromyces appendiculatus (8 ppm) is below 20%.

As for `C[C@H](NC(=O)c1sc(Cl)c(Cl)c1Cl)C(=O)O` [CMP1, reference compound], the pest or weed control at 500 ppm in series [5] is below 20%. Further, the values for the pest or weed control at 31 ppm in series [2] and in series [4] were below 20% and below 40%, respectively.

For `COC(=O)[C@@H](NC(=O)c1sc(Cl)c(Cl)c1Cl)C(C)C` [CMP4, reference compound], the pest or weed control at 31 ppm in series [5] amounted to 0%. Moreover, the pest or weed control at 125 ppm in series [4] stood at 0%.

Take `O=C(O)c1ccccc1O` [Salicylic acid, reference compound]: the relative fluorescence value in series [3] (300 ppm) came out at 2.70.

In the case of `NC(=S)CNC(=O)c1sc(Cl)c(Cl)c1Cl` [I.104, N-(2-amino-2-sulfanylideneethyl)-3,4,5-trichlorothiophene-2-carboxamide], the chromatographic logP in series [1] (given in the preparation examples, method not marked) came to 2.53; in series [1] (setting [6]), 2.53. The pest or weed control at 31 ppm in series [5] lay within 70 to 79%; in the series on Peronospora parasitica it was 90 to 100%. Also, the pest or weed control at 500 ppm in series [5] was in the range of 80 to 89%; in series [2], 80 to 89%; with Uromyces appendiculatus, 90 to 100%; with Peronospora parasitica (500 ppm of active ingredient), 90 to 100%. Moreover, the results for the pest or weed control at 125 ppm with Uromyces appendiculatus and in the series with Peronospora parasitica were 70 to 79% and 90 to 100%, respectively. Also, the fold induction at 75 ppm in series [3] was above 2. For the same compound, in series [3] (300 ppm), the fold induction at 300 ppm was above 2.

In series [1] (setting [6]), `CCOC(=O)C(C)N(C(=O)c1sc(Cl)c(Cl)c1Cl)C1CC1` (stereo not shown) [I.110] gave a chromatographic logP of 4.23. In the series with Uromyces appendiculatus, the pest or weed control at 125 ppm lay in the range of 70 to 79% and the pest or weed control at 500 ppm is 90 to 100%. The pest or weed control at 500 ppm in the series with Peronospora parasitica (500 ppm of active ingredient) fell in the range of 70 to 79%. Further, in series [4], the pest or weed control at 31 ppm is 70 to 79% and the pest or weed control at 125 ppm was 70 to 79%.

Turning to `CCSC(=O)[C@H](C)NC(=O)c1sc(Cl)c(Cl)c1Cl` [I.089], in series [1] (setting [6]), the chromatographic logP was 4.4. The pest or weed control at 31 ppm (in series [5]; in the series with Peronospora parasitica) was 90 to 100% each time. Further, the pest or weed control at 500 ppm (in series [5]; in series [2]; in the series on Uromyces appendiculatus; in the series on Peronospora parasitica (500 ppm of active ingredient)) was 90 to 100% in each case. Moreover, the pest or weed control at 125 ppm in the series with Uromyces appendiculatus and with Peronospora parasitica was 90 to 100% throughout. In series [3], the fold induction at 75 ppm was above 2. Also, in series [3] (300 ppm), the fold induction at 300 ppm was above 2.

For `CCOC(=O)[C@H](C)NC(=S)c1sc(Cl)c(Cl)c1Cl` [I.118], the LogP in series [1] is 5.21^[a]. In the series on Peronospora parasitica (500 ppm of active ingredient), this compound gave an efficacy of 70%.

`COC(=O)[C@H](C)NC(=S)c1sc(Cl)c(Cl)c1Cl` [I.117] had a chromatographic logP in series [1] (setting [6]) of 4.62. Also, the pest or weed control at 31 ppm in series [5] is 80 to 89%; in series [2], 70 to 79%; in the series with Peronospora parasitica, 90 to 100%. For the same compound, the pest or weed control at 500 ppm in series [5] fell in the range of 80 to 89%; in series [2], 90 to 100%; in the series on Uromyces appendiculatus it was 90 to 100%; in the series with Peronospora parasitica (500 ppm of active ingredient) it was 90 to 100%. Besides, the pest or weed control at 125 ppm with Uromyces appendiculatus and in the series on Peronospora parasitica was 90 to 100% in each case. In addition, the fold induction at 75 ppm in series [3] is above 2. Moreover, the fold induction at 300 ppm in series [3] (300 ppm) was above 2.
